Measured values from patent US12673954B2 (BRISTOL-MYERS SQUIBB COMPANY, priority 2021, dated 2026).
Read-outs that look alike come from different tables or passages of the source.

How the values were obtained:
[1] = system: NF-κB pathway, THP1-Dual™ cells; experiment: STING reporter assay in THP1-Dual cells, NF-κB pathway (SEAP, QUANTI-Blue); format: cell-based, human; settings: THP1-Dual cells, 10% human plasma, 20 hours, SEAP, 100% activation = 100 μM cGAMP, read-out: NFkB (EC50 μM)
Outline: (§1)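 Activation normalised between DMSO-only baseline and 100 μM cGAMP maximum, after 20 h compound exposure (starting at 100 μM final) at 37° C, 5% CO2. Supernatant SEAP (QUANTI-Blue, OD620) reports NF-κB; secreted luciferase (QUANTI-Luc, RLU at 5 min) reports IRF.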

[2] = system: IRF pathway, THP1-Dual™ cells; experiment: STING reporter assay in THP1-Dual cells, IRF pathway (Lucia luciferase, QUANTI-Luc); format: cell-based, human; settings: THP1-Dual cells, 10% human plasma, 20 hours, Lucia luciferase, 100% activation = 100 μM cGAMP, read-out: IRF (EC50 μM)
Outline: as §1

Row | EC50 ([1]; Homo sapiens, THP1-Dual, 20 h) [µM] | EC50 ([2]; Homo sapiens, THP1-Dual, 20 h) [µM] | EC50 [1] [µM] | EC50 [2] [µM] | SMILES
1 | 2.3 | 3.3 | – | – | COC(OC(=O)c1cc(C#N)cc2cc(CNC(=O)c3cnn4cccnc34)oc12)C(F)(F)F (single isomer, unassigned) [EXAMPLE 347, 2,2,2-Trifluoro-1-methoxyethyl 5-cyano-2-((pyrazolo[1,5-a]pyrimidine-3-carboxamido)methyl)benzofuran-7-carboxylate]
2 | 0.67 | 0.6 | – | – | COC(=O)c1cccc2c(Cl)c(CNC(=O)c3cnn4cccnc34)oc12 [EXAMPLE 22, Methyl 3-chloro-2-((pyrazolo[1,5-a]pyrimidine-3-carboxamido)methyl)benzofuran-7-carboxylate]
3 | 2 | 2.9 | – | – | Cc1ccc(C(=O)OCC(F)(F)F)c2oc(CNC(=O)c3cnn4cccnc34)cc12 [EXAMPLE 358, 2,2,2-Trifluoroethyl 4-methyl-2-((pyrazolo[1,5-a]pyrimidine-3-carboxamido)methyl)benzofuran-7-carboxylate]
4 | 16 | 10 | – | – | COC(=O)c1cc(Cl)cc2cc(CNC(=O)c3c(N)nn4cccnc34)oc12 [Example 63, Methyl 2-((2-aminopyrazolo[1,5-a]pyrimidine-3-carboxamido)methyl)-5-chlorobenzofuran-7-carboxylate]
5 | 1.1 | 0.9 | – | – | COC(=O)c1c(O)ccc2cc(CNC(=O)c3cnn4cccnc34)oc12 [EXAMPLE 109, Methyl 6-hydroxy-2-((pyrazolo[1,5-a]pyrimidine-3-carboxamido)methyl)benzofuran-7-carboxylate]
6 | – | – | 4.5 | 4.3 | CC(OC(=O)c1cc(F)cc2cc(CNC(=O)c3cnn4cccnc34)oc12)C(F)(F)F (single isomer, unassigned) [EXAMPLE 318, 1,1,1-Trifluoropropan-2-yl 5-fluoro-2-((pyrazolo[1,5-a]pyrimidine-3-carboxamido)methyl)benzofuran-7-carboxylate]
7 | > 100 | 68 | – | – | CNc1nn2cccnc2c1C(=O)NCc1cc2cc(Cl)cc(C(=O)OC)c2o1 [Example 64, Methyl 5-chloro-2-((2-(methylamino)pyrazolo[1,5-a]pyrimidine-3-carboxamido)methyl)benzofuran-7-carboxylate]
8 | 27 | 30 | – | – | COC(=O)Cc1cc(Br)cc2cc(CNC(=O)c3cnn4cccnc34)oc12 [Example 84, Methyl 2-(5-bromo-2-((pyrazolo[1,5-a]pyrimidine-3-carboxamido)methyl)benzofuran-7-yl)acetate]
9 | 1.8 | 1.3 | – | – | O=C(OC1CC(F)(F)C1)c1cc(F)cc2cc(CNC(=O)c3cnn4cccnc34)oc12 [EXAMPLE 236, 3,3-Difluorocyclobutyl 5-fluoro-2-((pyrazolo[1,5-a]pyrimidine-3-carboxamido)methyl)benzofuran-7-carboxylate]
10 | 1.1 | 1.1 | – | – | O=C(OCC(F)(F)F)c1cc(Br)cc2cc(CNC(=O)c3cnn4cccnc34)oc12 [EXAMPLE 269, 2,2,2-Trifluoroethyl 5-bromo-2-((pyrazolo[1,5-a]pyrimidine-3-carboxamido)methyl)benzofuran-7-carboxylate]
11 | 1.3 | 1.4 | – | – | O=C(OCC(F)(F)F)c1cc(F)c(F)c2cc(CNC(=O)c3cnn4cccnc34)oc12 [EXAMPLE 226]
12 | 1.6 | 1.4 | – | – | COC(=O)c1c(F)c(F)cc2cc(CNC(=O)c3cnn4cccnc34)oc12 [EXAMPLE 126, Methyl 5,6-difluoro-2-((pyrazolo[1,5-a]pyrimidine-3-carboxamido)methyl)benzofuran-7-carboxylate]
13 | 2 | 1.4 | – | – | COC(=O)c1c(F)ccc2cc(CNC(=O)c3cnn4cccnc34)oc12 [EXAMPLE 107, Methyl 6-fluoro-2-((pyrazolo[1,5-a]pyrimidine-3-carboxamido)methyl)benzofuran-7-carboxylate]
14 | 0.27 | 0.22 | – | – | COC(=O)c1cc(F)cc2c(Cl)c(CNC(=O)c3cnn4cccnc34)oc12 [EXAMPLE 110, Methyl 3-chloro-5-fluoro-2-((pyrazolo[1,5-a]pyrimidine-3-carboxamido)methyl)benzofuran-7-carboxylate]

More lines, now with the values behind:

Row | SMILES | EC50 ([1]; Homo sapiens, THP1-Dual, 20 h) [µM] | EC50 ([2]; Homo sapiens, THP1-Dual, 20 h) [µM] | EC50 [1] [µM] | EC50 [2] [µM]
15 | O=C(OCCO)c1cccc2cc(CN3CCc4ccncc4C3=O)oc12 [EXAMPLE 211, 2-Hydroxyethyl 2-((1-oxo-3,4-dihydro-2,7-naphthyridin-2(1H)-yl)methyl)benzofuran-7-carboxylate] | 31 | 23 | – | –
16 | CSC(=O)c1cc(Cl)cc2c(Cl)c(CNC(=O)c3cnn4cccnc34)oc12 [EXAMPLE 396] | 0.37 | 0.36 | – | –
17 | CC(NC(=O)c1cnn2cccnc12)c1cc2cc(F)cc(C(=O)O[C@H](C)C(F)(F)F)c2o1 (stereo partly drawn) [EXAMPLE 325, (R)-1,1,1-Trifluoropropan-2-yl 5-fluoro-2-(1-(pyrazolo[1,5-a]pyrimidine-3-carboxamido)ethyl)benzofuran-7-carboxylate] | – | – | 1.4 | 1.7
18 | Cc1cc(C(=O)OCC(F)(F)F)c2oc(CNC(=O)c3cnn4cccnc34)c(Cl)c2c1 [EXAMPLE 299, 2,2,2-Trifluoroethyl 3-chloro-5-methyl-2-((pyrazolo[1,5-a]pyrimidine-3-carboxamido)methyl)benzofuran-7-carboxylate] | 0.33 | 0.28 | – | –
19 | COC(=O)c1cc(C)cc2c(Cl)c(C(C)NC(=O)c3cnn4cccnc34)oc12 (single isomer, unassigned) [EXAMPLE 120, Methyl-3-chloro-5-methyl-2-(1-(pyrazolo[1,5-a]pyrimidine-3-carboxamido)ethyl)benzofuran-7-carboxylate] | 3.2 | 2.7 | – | –
20 | CSC(=O)c1cc(F)cc2cc([C@H](C)NC(=O)c3cnn4cccnc34)oc12 [EXAMPLE 399, S-Methyl (S)-5-fluoro-2-(1-(pyrazolo[1,5-a]pyrimidine-3-carboxamido)ethyl)benzofuran-7-carbothioate] | 1.5 | 1.3 | – | –
21 | CSC(=O)c1cc(F)cc2c(Cl)c(CNC(=O)c3cnn4cccnc34)oc12 [EXAMPLE 393, S-Methyl 3-chloro-5-fluoro-2-((pyrazolo[1,5-a]pyrimidine-3-carboxamido)methyl)benzofuran-7-carbothioate] | 0.3 | 0.39 | – | –
22 | CCn1cncc(C(=O)NCc2cc3cc(Cl)cc(C(=O)OC)c3o2)c1=O [Example 66, Methyl 5-chloro-2-((1-ethyl-6-oxo-1,6-dihydropyrimidine-5-carboxamido)methyl)benzofuran-7-carboxylate] | 33 | 28 | – | –
23 | COC(=O)c1cc(Cl)cc2cc(CNC(=O)c3cnn4c(C)ccnc34)oc12 [Example 56, Methyl 5-chloro-2-((7-methylpyrazolo[1,5-a]pyrimidine-3-carboxamido)methyl) benzofuran-7-carboxylate] | – | – | > 33 | 30
24 | COC(=O)c1cc(O)cc2cc(CN3CCc4ccncc4C3=O)oc12 [EXAMPLE 103, Methyl 5-hydroxy-2-((1-oxo-3,4-dihydro-2,7-naphthyridin-2(1H)-yl)methyl)benzofuran-7-carboxylate] | 23 | 25 | – | –
25 | COc1ccn2ncc(C(=O)NCc3cc4cc(Cl)cc(C(=O)OC(C)C(F)(F)F)c4o3)c2n1 (single isomer, unassigned) [EXAMPLE 368, 1,1,1-Trifluoropropan-2-yl 5-chloro-2-((5-methoxypyrazolo[1,5-a]pyrimidine-3-carboxamido)methyl)benzofuran-7-carboxylate] | 11 | 11 | – | –
26 | O=C(OCC(F)(F)F)c1cc(Cl)cc2cc(Cn3cnc4ccncc4c3=O)oc12 [EXAMPLE 371, 2,2,2-Trifluoroethyl 5-chloro-2-((4-oxopyrido[4,3-d]pyrimidin-3(4H)-yl)methyl)benzofuran-7-carboxylate] | 2.8 | 2.5 | – | –
27 | O=C(O)c1cc(F)cc2c(Cl)c(CNC(=O)c3cnn4cccnc34)oc12 [EXAMPLE 172, 3-chloro-5-fluoro-2-((pyrazolo[1,5-a]pyrimidine-3-carboxamido)methyl)benzofuran-7-carboxylic acid] | 74 | 62 | – | –
28 | CSC(=O)c1cccc2cc(CNC(=O)c3cnccn3)oc12 [EXAMPLE 381, S-Methyl 2-((pyrazine-2-carboxamido)methyl)benzofuran-7-carbothioate] | 12 | 13 | – | –
29 | COC(OC(=O)c1cc(C(F)(F)F)cc2cc(CNC(=O)c3cnn4cccnc34)oc12)C(F)(F)F (single isomer, unassigned) [EXAMPLE 351, 2,2,2-Trifluoro-1-methoxyethyl 2-((pyrazolo[1,5-a]pyrimidine-3-carboxamido)methyl)-5-(trifluoromethyl)benzofuran-7-carboxylate] | 2.4 | 1.9 | – | –
30 | CSC(=O)c1cc(Cl)cc2c(Cl)c([C@H](C)NC(=O)c3cnn4cccnc34)oc12 [EXAMPLE 402] | 2.4 | 2.4 | – | –
31 | CC(OC(=O)c1cccc2cc(CN3CCc4ccncc4C3=O)oc12)C(F)(F)F (single isomer, unassigned) [EXAMPLE 307, 1,1,1-Trifluoropropan-2-yl 2-((1-oxo-3,4-dihydro-2,7-naphthyridin-2(1H)-yl)methyl)benzo-furan-7-carboxylate] | – | – | 8.9 | 7.7
